Results on six molecules are retold here after patent publication US4554272A, “Substituted quinazolino-1,4-benzodiazepin-6,9-diones and their preparation” (Merck & Co., Inc., priority 1985, dated 1985).

The structures appear in SMILES notation.

Experiment [1] has as its target T1, CCK receptor (pancreas) (Rattus norvegicus, UniProt P30551).
T1 construct: The whole pancreas of a male Sprague-Dawley rat; from tissue; host or cells: whole pancreas of male Sprague-Dawley rat, washed membrane suspension
T1 sequence (P30551 1-444): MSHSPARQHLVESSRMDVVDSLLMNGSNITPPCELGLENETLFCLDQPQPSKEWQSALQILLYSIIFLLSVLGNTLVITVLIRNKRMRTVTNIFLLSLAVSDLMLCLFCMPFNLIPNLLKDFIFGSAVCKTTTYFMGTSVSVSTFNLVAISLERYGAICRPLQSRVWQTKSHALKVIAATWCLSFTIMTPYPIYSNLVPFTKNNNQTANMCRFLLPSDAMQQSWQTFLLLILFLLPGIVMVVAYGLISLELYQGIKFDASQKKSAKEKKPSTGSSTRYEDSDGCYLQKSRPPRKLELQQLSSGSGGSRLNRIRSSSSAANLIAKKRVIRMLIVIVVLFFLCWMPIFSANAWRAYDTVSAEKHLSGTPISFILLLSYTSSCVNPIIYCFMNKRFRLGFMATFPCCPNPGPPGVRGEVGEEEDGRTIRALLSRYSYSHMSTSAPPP
The experiment can be described thus: CCK Receptor Binding (pancreas). Further details: species or system rat (male Sprague-Dawley). The settings on record: for IC50: rat pancreas membranes, 125I-CCK-33, 37° C., 30 minutes, read-out: I-CCK-8 Pancreas IC50. From the text:
(§1) Screening of the novel compounds according to the present invention to determine biological activity and obtain an IC50 value for them (in order to identify significant CCK-antagonism) is accomplished using an ^125 I-CCK receptor binding assay and in vitro isolated tissue preparations. These tests involve the following:
CCK Receptor Binding (pancreas) Method
CCK-33 is radiolabeled with ^125 I-Bolton Hunter reagent (2000 Ci/mmole), as described by Sankara et al. (J. Biol. Chem., 254, 9349-9351, 1979). Receptor binding is performed according to Innis and Snyder (Proc. Natl. Acad. Sci., 77, 6917-6921, 1980), with the minor modification of adding the additional protease inhibitors, phenylmethane sulfonyl fluoride and o-phenanthroline, which have no effect on the ^125 I-CCK receptor binding assay.
The whole pancreas of a male Sprague-Dawley rat (200-350 g), which has been sacrificed by decapitation, is dissected free of fat tissue and homogenized in 20 volumes of ice-cold 50 mM Tris HCl (pH 7.7 at 25° C.) with a Brinkman Polytron PT-10. The homogenates are centrifuged at 48,000 g for 10 minutes, then the resulting pellets are resuspended in Tris Buffer, centrifuged as above, and resuspended in 200 volumes of binding assay buffer (50 mM Tris HCl, pH 7.7 at 25° C., 5 mM dithiothreitol, 0.1 mM bacitracin, 1.2 mM phenylmethane sulfonyl fluoride and 0.5 mM o-phenanthroline).
For the binding assay, 25 μl of buffer (for total binding), or unlabeled CCK-8 sulfate sufficient to give a final concentration of 1 μM of CCK-8 (for nonspecific binding), or the compounds of the formula of the compounds according to the instant invention (for determination of antagonism to ^125 I-CCK binding) and 25 μl of ^125 I-CCK-33 (30,000-40,000 cpm), are added to 450 μl of the membrane suspensions in microfuge tubes. All assays are run in duplicate or triplicate, and the reaction mixtures are incubated at 37° C. for 30 minutes and centrifuged in a Beckman Microfuge (4 minutes) immediately after adding 1 ml of ice-cold incubation buffer. The supernatant is aspirated and discarded, and the pellets are counted with a Beckman Gamma 5000.
(§2) Representative formula I compounds listed were tested as CCK-antagonists (in I-CCK-8 pancreas and ^125 I-CCK Brain assays) with results, as tabulated in the following table.

The target in experiment [2] is T2, CCK receptor (brain, cerebral cortex) (Cavia porcellus, UniProt H0VZC5).
T2 construct: The cerebral cortex is dissected and used as a receptor source; from tissue; host or cells: cerebral cortex of male Hartley guinea pig, washed membrane suspension
T2 sequence (H0VZC5 1-426): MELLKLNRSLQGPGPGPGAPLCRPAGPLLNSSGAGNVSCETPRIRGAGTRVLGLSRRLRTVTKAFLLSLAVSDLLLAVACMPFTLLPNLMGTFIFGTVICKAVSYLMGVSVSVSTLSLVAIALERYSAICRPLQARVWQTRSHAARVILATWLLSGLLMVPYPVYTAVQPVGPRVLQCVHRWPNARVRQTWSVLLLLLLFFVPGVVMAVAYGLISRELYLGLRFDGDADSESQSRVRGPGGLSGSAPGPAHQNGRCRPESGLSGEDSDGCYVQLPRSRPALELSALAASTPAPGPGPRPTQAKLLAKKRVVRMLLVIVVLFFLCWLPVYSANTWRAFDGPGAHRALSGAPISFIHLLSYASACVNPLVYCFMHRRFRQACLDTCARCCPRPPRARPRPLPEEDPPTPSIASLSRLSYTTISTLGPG
The experiment can be described thus: CCK Receptor Binding (brain). On the set-up: species or system guinea pig (male Hartley). Conditions: guinea pig cerebral cortex; 125I-CCK-33, pH 6.5, 25° C., 2 hours. How it is done:
as §1
(§3) CCK Receptor Binding (brain) Method
(§4) CCK-33 is radiolabeled and the binding is performed according to the description for the pancreas method, with modifications according to Saito et al., J. Neurochem., 37, 483-490, 1981.
(§5) Male Hartley guinea pigs (300-500 g) are sacrificed by decapitation, and the brains are removed and placed in ice-cold 50 mM Tris HCl (Trizma-7.4) [pH 7.4 at 25° C.]. The cerebral cortex is dissected and used as a receptor source and each gram of fresh guinea pig brain tissue is homogenized in 10 ml of Tris/Trizma buffer with a Brinkman polytron PT-10. The homogenates are centrifuged at 42,000 g for 15 minutes, then the resulting pellets are resuspended in 80 volumes of binding assay buffer (10 mM N-2-hydroxyethyl-piperazine-N'-2-ethanesulfonic acid (HEPES), 5 mM MgCl2, 1 mM ethylene glycol-bis(β-amino-ethyl-ether-N,N'-tetraacetic acid (EGTA), 0.4% BSA and 0.25 mg/ml bacitracin, pH 6.5).
(§6) The remainder of the inding assay method is as described for the pancreas method, except that the reaction mixtures are incubated at 25° C. for 2 hours before […].
as §2

Experiment [3] deals with CCK receptor (brain, cerebral cortex). The experiment can be described thus: CCK Receptor Binding (brain). Further details: species or system guinea pig (male Hartley). The settings on record: in words, comment on Table 1 (pancreas vs brain); especially vs formula Ia and Example 13. The procedure:
as §1, §3, §4, §5, §6, §2

With `O=C1Nc2ccccc2-c2nc3ccccc3c(=O)n2[C@H]1Cc1c[nH]c2ccccc12` [*, 7β-[(1H-indol-3-yl)methyl]quinazoline(3,2-D)(1,4)benzodiazepin-6,9(5H,7H)-dione, reference compound], the half-maximal inhibitory concentration (IC50) (in general, the concentration that gives 50% inhibition) in experiment [1] is 76 µM; in experiment [2], 110 µM.
On to `O=C1Nc2ccccc2-c2nc3ccccc3c(=O)n2[C@@H]1Cc1c[nH]c2ccccc12` [Example 13, 7α-[(1H-indol-3-yl)methyl]quinazolino(3,2-D)-1,4-benzodiazepin-6,9(5H,7H)-dione hydrate], for which the “potency compared with the formula Ia compound” value in experiment [1] (in words, comment on Table 1 (pancreas and brain binding)) is listed as “improved”. Further, the IC50 in experiment [1] was 67 µM; in experiment [2], 100 µM.
As for `C[C@H]1C(=O)Nc2ccccc2-c2nc3ccccc3c(=O)n21` [Example 14, 7β-methylquinazolino(3,2-D)(1,4)benzodiazepin-6,9-(5H,7H)-dione], the IC50 in experiment [1] and in experiment [2] was 100 µM each time.
As for `O=C1Cn2c(nc3ccccc3c2=O)-c2ccccc2N1` [Example 15, quinazolino(3,2-D)(1,4)benzodiazepin-6,9(5H,7H)-dione], the IC50 in experiment [1] and in experiment [2] was 100 µM in each case.
As for `O=C1Nc2ccccc2-c2nc3ccccc3c(=O)n2[C@H]1Cc1ccc(O)cc1` [Example 16, 7β-[(4-hydroxyphenyl)methyl]quinazolino(3,2-D)(1,4)-benzodiazepin-6,9(5H,7H)-dione hydrate], the half-maximal inhibitory concentration (IC50) in experiment [1] and in experiment [2] was 100 µM each time.
Regarding `CN1C(=O)[C@H](Cc2c[nH]c3ccccc23)n2c(nc3ccccc3c2=O)-c2ccccc21` [Example 19, 5-methyl-7β-[(1H-indol-3-yl)methyl]quinazolino(3,2-D)(1,4)benzodiazepin-6,9(5H,7H)-dione hydrate], the IC50 is 104 µM in experiment [1] and 51 µM in experiment [2]. The “selectivity compared with the other compounds” value in experiment [3] was “substantial change in selectivity”.
